Source: ChEMBL document CHEMBL1143302, “Identification of 3-amido-4-anilinoquinolines as potent and selective inhibitors of CSF-1R kinase” (Bioorg Med Chem Lett, 2009)

How the values were obtained:
Assay type in all cases: ADME, organism-based
[1] = Clearance in rat at 3 mg/kg, iv and 10 mg/kg, po; conditions: in vivo
[2] = Volume of distribution at steady state in rat at 3 mg/kg, iv and 10 mg/kg, po; conditions: in vivo, read-out: Vdss
[3] = Half life in rat at 3 mg/kg, iv and 10 mg/kg, po; conditions: in vivo
[4] = Bioavailability in rat at 3 mg/kg, iv and 10 mg/kg, po; conditions: in vivo

| SMILES | clearance [1] | Vd [2] | half-life [3] | bioavailability [4] |
| --- | --- | --- | --- | --- |
| COc1cc2c(Nc3cccc(Cl)c3Cl)c(C(N)=O)cnc2cc1NCCN(C)C | 90 mL/min/kg | 19 L/kg | 2.4 h | – |
| COc1cc2ncc(C(N)=O)c(Nc3ccc(F)c(Cl)c3)c2cc1OC | 59 mL/min/kg | 1.8 L/kg | 0.6 h | 24% |
| COc1cc2ncc(C(N)=O)c(Nc3cccc(Cl)c3Cl)c2cc1NCCN1CCCCC1 | 78 mL/min/kg | 8.5 L/kg | 1.6 h | – |
| COc1cc2c(Nc3ccc(F)c(Cl)c3)c(C(N)=O)cnc2cc1OCCN(C)C | 210 mL/min/kg | 40 L/kg | 2.1 h | – |
| COc1cc2c(Nc3ccc(F)c(Cl)c3)c(C(N)=O)cnc2cc1OCCN1CCCC1 | 270 mL/min/kg | 52 L/kg | 2.4 h | – |
| COc1cc2ncc(C(N)=O)c(Nc3ccc(F)cc3)c2cc1OC | 7 mL/min/kg | 0.3 L/kg | 0.9 h | 96% |
| COc1cc2c(Nc3ccc(F)c(Cl)c3)c(C(N)=O)cnc2cc1OCCNC1CC1 | 230 mL/min/kg | 30 L/kg | 1.7 h | – |
| COc1cc2ncc(C(N)=O)c(Nc3cccc(Cl)c3Cl)c2cc1OC | 115 mL/min/kg | 4.1 L/kg | 0.5 h | – |
| CCOc1cc2ncc(C(N)=O)c(Nc3cccc(Cl)c3Cl)c2cc1NCCN1CCCCC1 | 110 mL/min/kg | 12 L/kg | 1.6 h | – |
| COc1cc2c(Nc3ccc(F)cc3F)c(C(N)=O)cnc2cc1NCCN(C)C | 220 mL/min/kg | 36 L/kg | 1.9 h | – |
